{
  "source": "paper PMC10756276",
  "about": "“Highly specific σ2R/TMEM97 ligand FEM-1689 alleviates neuropathic pain and inhibits the integrated stress response” (Proceedings of the National Academy of Sciences of the …, 2023)",
  "key": {"[1]": {"target": "T1, 5HT1B (Homo sapiens, UniProt P28222)", "T1 construct": "purchased NIMH Psychoactive Drug Screening Program (PDSP), University of North Carolina at Chapel Hill", "T1 sequence (P28222 whole entry)": "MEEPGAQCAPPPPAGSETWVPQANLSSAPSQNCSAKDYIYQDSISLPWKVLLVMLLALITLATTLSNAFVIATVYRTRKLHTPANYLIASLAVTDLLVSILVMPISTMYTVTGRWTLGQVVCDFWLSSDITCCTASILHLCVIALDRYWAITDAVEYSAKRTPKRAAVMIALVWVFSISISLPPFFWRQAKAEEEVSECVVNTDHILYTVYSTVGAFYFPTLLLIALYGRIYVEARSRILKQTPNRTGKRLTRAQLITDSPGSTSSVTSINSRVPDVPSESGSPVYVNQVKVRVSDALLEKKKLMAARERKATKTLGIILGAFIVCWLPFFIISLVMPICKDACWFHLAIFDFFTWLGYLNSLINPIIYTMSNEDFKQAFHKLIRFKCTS", "assay": "PDSP competitive binding assay", "conditions": "10 µM test article; read-out: Ki: primary assay inhibition of radioligand binding, 5HT1B"}, "[2]": {"test_system": "SNI model of neuropathic pain, wild-type and TMEM97KO mice", "assay": "SNI model of neuropathic pain, von Frey mechanical hypersensitivity", "assay_type": "in vivo, mouse", "conditions": "for mechanical hypersensitivity after SNI (von Frey): male and female"}, "[3]": {"target": "DOR (Homo sapiens, UniProt P41143)", "sequence (P41143 whole entry)": "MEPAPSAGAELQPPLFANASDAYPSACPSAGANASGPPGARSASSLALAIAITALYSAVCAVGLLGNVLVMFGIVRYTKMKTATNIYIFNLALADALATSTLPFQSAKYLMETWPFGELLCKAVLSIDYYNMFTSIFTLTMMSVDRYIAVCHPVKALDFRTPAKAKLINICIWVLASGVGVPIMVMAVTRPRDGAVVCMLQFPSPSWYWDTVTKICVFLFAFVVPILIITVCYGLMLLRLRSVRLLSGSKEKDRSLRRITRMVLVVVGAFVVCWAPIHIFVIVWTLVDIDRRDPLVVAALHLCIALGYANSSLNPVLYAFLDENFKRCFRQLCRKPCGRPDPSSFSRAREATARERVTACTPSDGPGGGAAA", "assay": "PDSP competitive binding assay", "conditions": "10 µM test article; read-out: Ki: primary assay inhibition of radioligand binding, DOR"}, "[4]": {"assay": "Pharmacokinetic parameters after IP dosing (Fig. 2)", "assay_type": "in vivo"}, "[5]": {"target": "T2, Alpha2c (Homo sapiens, UniProt P18825)", "T2 construct": "purchased NIMH Psychoactive Drug Screening Program (PDSP), University of North Carolina at Chapel Hill", "assay": "PDSP competitive binding assay", "conditions": "10 µM test article; read-out: Ki: primary assay inhibition of radioligand binding, Alpha2c"}, "[6]": {"target": "5HT2C (Homo sapiens, UniProt P28335)", "sequence (P28335 33-458)": "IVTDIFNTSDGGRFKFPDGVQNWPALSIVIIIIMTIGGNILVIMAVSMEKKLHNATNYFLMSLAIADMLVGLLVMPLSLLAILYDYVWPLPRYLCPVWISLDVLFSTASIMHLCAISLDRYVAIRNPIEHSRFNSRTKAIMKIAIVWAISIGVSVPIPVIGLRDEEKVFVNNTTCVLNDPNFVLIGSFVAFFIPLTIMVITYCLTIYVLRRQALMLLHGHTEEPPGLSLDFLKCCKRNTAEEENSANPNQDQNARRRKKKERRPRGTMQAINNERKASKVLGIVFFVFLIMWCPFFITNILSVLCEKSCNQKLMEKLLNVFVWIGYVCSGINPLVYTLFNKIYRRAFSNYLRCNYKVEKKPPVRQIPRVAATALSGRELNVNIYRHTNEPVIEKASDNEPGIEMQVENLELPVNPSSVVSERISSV", "assay": "PDSP competitive binding assay", "conditions": "10 µM test article; read-out: Ki: primary assay inhibition of radioligand binding, 5HT2C"}, "[7]": {"target": "D1 (Homo sapiens, UniProt P21728)", "assay": "PDSP competitive binding assay", "conditions": "10 µM test article; read-out: Ki: primary assay inhibition of radioligand binding, D1"}, "[8]": {"target": "hERG (Homo sapiens, UniProt Q12809)", "sequence (Q12809 whole entry)": "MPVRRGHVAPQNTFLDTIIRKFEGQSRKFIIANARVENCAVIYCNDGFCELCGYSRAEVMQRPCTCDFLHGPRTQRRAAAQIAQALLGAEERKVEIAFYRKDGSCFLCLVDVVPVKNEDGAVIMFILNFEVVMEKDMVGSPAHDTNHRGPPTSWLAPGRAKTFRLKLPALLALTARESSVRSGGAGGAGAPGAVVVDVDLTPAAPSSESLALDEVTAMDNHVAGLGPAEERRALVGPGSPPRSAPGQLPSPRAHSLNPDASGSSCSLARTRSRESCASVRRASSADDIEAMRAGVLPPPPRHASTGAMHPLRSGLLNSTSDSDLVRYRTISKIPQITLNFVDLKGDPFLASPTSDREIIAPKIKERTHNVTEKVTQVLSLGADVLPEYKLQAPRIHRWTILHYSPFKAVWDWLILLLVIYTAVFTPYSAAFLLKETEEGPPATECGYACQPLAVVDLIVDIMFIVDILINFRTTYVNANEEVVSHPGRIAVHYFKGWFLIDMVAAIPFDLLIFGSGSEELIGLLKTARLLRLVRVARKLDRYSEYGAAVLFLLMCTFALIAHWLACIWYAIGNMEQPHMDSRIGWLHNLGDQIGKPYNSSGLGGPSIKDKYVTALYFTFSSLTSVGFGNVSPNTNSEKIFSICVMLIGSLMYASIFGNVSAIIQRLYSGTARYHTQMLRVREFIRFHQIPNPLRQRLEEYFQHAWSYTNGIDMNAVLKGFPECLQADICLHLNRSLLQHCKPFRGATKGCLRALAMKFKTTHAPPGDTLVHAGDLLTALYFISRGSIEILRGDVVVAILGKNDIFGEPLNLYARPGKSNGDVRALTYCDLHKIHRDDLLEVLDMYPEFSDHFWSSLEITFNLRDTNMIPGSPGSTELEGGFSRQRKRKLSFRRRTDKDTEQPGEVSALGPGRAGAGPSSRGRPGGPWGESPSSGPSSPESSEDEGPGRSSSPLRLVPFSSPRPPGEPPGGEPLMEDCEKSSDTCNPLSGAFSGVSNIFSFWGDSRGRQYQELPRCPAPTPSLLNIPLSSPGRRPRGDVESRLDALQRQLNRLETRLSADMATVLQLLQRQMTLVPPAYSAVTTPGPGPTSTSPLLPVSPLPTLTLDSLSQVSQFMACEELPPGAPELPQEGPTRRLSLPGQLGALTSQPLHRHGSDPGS", "assay": "PDSP competitive binding assay (safety/nuisance target)"}, "[9]": {"target": "5HT1e (Homo sapiens, UniProt P28566)", "sequence (P28566 whole entry)": "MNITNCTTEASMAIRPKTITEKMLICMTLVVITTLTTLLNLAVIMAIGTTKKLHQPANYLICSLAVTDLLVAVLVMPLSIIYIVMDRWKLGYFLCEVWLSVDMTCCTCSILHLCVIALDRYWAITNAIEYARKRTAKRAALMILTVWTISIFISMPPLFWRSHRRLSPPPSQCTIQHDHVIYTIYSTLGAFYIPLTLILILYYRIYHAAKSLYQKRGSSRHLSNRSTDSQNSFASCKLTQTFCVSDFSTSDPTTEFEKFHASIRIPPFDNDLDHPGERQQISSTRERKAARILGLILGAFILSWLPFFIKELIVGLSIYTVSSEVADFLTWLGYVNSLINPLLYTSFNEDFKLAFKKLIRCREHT", "assay": "PDSP competitive binding assay", "conditions": "10 µM test article; read-out: Ki: primary assay inhibition of radioligand binding, 5HT1e"}, "[10]": {"target": "T3, Alpha1b (Homo sapiens, UniProt P35368)", "T3 construct": "purchased NIMH Psychoactive Drug Screening Program (PDSP), University of North Carolina at Chapel Hill", "assay": "PDSP competitive binding assay", "conditions": "10 µM test article; read-out: Ki: primary assay inhibition of radioligand binding, Alpha1b"}, "[11]": {"target": "T4, 5HT7 (Homo sapiens, UniProt P34969)", "T4 construct": "purchased NIMH Psychoactive Drug Screening Program (PDSP), University of North Carolina at Chapel Hill", "assay": "PDSP competitive binding assay", "conditions": "10 µM test article; read-out: Ki: primary assay inhibition of radioligand binding, 5HT7"}, "[12]": {"target": "5HT3 (Homo sapiens, UniProt P46098)", "sequence (P46098 24-478)": "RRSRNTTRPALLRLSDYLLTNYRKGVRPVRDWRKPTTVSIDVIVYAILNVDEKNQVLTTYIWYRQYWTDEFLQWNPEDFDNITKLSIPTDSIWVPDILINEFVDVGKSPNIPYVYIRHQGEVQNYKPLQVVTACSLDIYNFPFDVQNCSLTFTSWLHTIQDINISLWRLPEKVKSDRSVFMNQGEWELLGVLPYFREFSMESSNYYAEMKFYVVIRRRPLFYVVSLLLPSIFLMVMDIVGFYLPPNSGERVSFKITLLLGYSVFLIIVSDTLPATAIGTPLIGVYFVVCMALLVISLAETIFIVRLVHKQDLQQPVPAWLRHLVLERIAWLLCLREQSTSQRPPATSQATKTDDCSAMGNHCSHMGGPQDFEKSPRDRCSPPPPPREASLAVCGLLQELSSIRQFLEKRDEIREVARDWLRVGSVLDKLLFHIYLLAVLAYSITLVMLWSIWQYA", "assay": "PDSP competitive binding assay", "conditions": "10 µM test article; read-out: Ki: primary assay inhibition of radioligand binding, 5HT3"}, "[13]": {"target": "T5, Alpha2b (Homo sapiens, UniProt P18089)", "T5 construct": "purchased NIMH Psychoactive Drug Screening Program (PDSP), University of North Carolina at Chapel Hill", "assay": "PDSP competitive binding assay", "conditions": "10 µM test article; read-out: Ki: primary assay inhibition of radioligand binding, Alpha2b"}, "[14]": {"target": "T6, H3 (Homo sapiens, UniProt Q9Y5N1)", "T6 construct": "purchased NIMH Psychoactive Drug Screening Program (PDSP), University of North Carolina at Chapel Hill", "assay": "PDSP competitive binding assay", "conditions": "10 µM test article; read-out: Ki: primary assay inhibition of radioligand binding, H3"}, "[15]": {"target": "T7, M5 (Homo sapiens, UniProt P08912)", "T7 construct": "purchased NIMH Psychoactive Drug Screening Program (PDSP), University of North Carolina at Chapel Hill", "assay": "PDSP competitive binding assay", "conditions": "10 µM test article; read-out: Ki: primary assay inhibition of radioligand binding, M5"}, "[16]": {"test_system": "BiP in mouse DRG neurons", "assay": "BiP immunocytochemistry in cultured DRG neurons", "assay_type": "cell-based", "conditions": "ISRIB 200 nM", "procedure": "The ICC protocol was based on a previously published protocol ([76]). […] Cells were blocked with 10% normal goat serum (NGS) in PBS-triton X (0.1%). […] Antibodies were incubated at 4 °C overnight. […] It was washed with PBS twice. […] Images were analyzed using Olympus CellSens. […] Number of cells analyzed are detailed in SI Appendix, Tables S3 and S4. […]\nT his BSA gradient containing the cells was centrifuged at 900g for 5 min at room temperatur e.\nThe pellet containing the cells was resuspended in Br ainPhys media (STEMCell #05790) containing 2% […]\n1% Gluta Max (Gibco # 350 5 0061). Hu man DRG ne uron s were plated a nd grown o n glass coverslips coate d with po ly-D-lysine (Sigma #P7405). C ultured D RG neurons were plated for 24 hours before being treated.\nMethylglyoxal (Sigma- Aldrich #M0252) and F EM- 1689 were serially diluted in media.\nMouse samples - DRG cultures […]\nanesthesia and decapitated. […]\nsection above with minor differences.\nMouse DRG neurons were grown in\nSAS-0132 and DKR-1677 were […]\ndissolved in 100% DMSO to a final concentr ation of 200mM and stored at - 20 °C. and DKR-1677 were serially diluted in media. Untreated media was completely replaced with media containing each compound. […]\nSlides were […]\nincubated with 1:2 diluted hydrogen peroxide in distilled water for 10 min at r oom temper ature and washed twice in distilled water. The protease IV was applied to each section and incubated for 5 min at room temperature. Slides were w ashed twice in 1X PBS and RNA scope was performed immediately. A mixture of probes - Tmem97, Scn10a, and Fabp7 – was hybridized for 2 hours at 40 °C in a humidity control tray"}, "[17]": {"target": "BZP Rat Brain", "assay": "PDSP competitive binding assay"}, "[18]": {"target": "M1 (Homo sapiens, UniProt P11229)", "sequence (P11229 whole entry)": "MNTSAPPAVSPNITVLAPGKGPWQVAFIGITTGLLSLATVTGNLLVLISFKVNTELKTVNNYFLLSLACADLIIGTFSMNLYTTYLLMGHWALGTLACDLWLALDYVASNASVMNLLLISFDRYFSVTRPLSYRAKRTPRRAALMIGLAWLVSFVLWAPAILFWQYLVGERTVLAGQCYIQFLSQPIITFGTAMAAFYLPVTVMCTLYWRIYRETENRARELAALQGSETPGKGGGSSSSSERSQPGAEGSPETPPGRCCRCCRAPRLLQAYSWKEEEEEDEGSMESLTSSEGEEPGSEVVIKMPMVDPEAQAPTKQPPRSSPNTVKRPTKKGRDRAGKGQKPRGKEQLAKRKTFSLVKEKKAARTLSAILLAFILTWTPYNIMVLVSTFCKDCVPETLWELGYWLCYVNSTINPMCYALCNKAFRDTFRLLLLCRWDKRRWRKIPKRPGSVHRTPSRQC", "assay": "PDSP competitive binding assay", "conditions": "10 µM test article; read-out: Ki: primary assay inhibition of radioligand binding, M1"}, "[19]": {"target": "M2 (Homo sapiens, UniProt P08172)", "sequence (P08172 whole entry)": "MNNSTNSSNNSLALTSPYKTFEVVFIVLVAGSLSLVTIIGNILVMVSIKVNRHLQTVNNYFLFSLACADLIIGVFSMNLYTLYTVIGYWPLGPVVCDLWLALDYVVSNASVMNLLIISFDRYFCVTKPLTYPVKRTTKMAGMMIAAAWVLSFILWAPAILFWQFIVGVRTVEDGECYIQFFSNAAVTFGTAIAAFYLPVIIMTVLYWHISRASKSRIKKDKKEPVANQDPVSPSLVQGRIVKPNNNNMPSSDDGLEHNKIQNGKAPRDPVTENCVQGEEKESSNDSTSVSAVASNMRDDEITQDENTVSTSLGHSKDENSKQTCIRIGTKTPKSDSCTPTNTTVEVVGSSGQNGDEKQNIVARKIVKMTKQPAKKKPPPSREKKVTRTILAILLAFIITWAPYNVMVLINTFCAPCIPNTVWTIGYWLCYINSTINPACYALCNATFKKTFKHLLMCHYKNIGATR", "assay": "PDSP competitive binding assay", "conditions": "10 µM test article; read-out: Ki: primary assay inhibition of radioligand binding, M2"}, "[20]": {"target": "T8, Alpha2a (Homo sapiens, UniProt P08913)", "T8 construct": "purchased NIMH Psychoactive Drug Screening Program (PDSP), University of North Carolina at Chapel Hill", "assay": "PDSP competitive binding assay", "conditions": "10 µM test article; read-out: Ki: primary assay inhibition of radioligand binding, Alpha2a"}, "[21]": {"target": "H4 (Homo sapiens, UniProt Q9H3N8)", "sequence (Q9H3N8 whole entry)": "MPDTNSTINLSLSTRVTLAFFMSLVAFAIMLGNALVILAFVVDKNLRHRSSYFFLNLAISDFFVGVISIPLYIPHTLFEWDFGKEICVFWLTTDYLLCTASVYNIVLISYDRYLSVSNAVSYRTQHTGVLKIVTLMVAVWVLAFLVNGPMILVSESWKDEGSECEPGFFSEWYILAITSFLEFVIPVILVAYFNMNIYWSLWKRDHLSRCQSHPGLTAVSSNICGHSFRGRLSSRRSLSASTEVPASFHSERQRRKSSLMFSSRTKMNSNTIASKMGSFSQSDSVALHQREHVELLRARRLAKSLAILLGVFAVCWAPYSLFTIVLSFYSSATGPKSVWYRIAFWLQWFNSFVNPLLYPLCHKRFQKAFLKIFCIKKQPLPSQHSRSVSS", "assay": "PDSP competitive binding assay"}, "[22]": {"target": "T9, Beta1 (Homo sapiens, UniProt P08588)", "T9 construct": "purchased NIMH Psychoactive Drug Screening Program (PDSP), University of North Carolina at Chapel Hill", "T9 sequence (P08588 whole entry)": "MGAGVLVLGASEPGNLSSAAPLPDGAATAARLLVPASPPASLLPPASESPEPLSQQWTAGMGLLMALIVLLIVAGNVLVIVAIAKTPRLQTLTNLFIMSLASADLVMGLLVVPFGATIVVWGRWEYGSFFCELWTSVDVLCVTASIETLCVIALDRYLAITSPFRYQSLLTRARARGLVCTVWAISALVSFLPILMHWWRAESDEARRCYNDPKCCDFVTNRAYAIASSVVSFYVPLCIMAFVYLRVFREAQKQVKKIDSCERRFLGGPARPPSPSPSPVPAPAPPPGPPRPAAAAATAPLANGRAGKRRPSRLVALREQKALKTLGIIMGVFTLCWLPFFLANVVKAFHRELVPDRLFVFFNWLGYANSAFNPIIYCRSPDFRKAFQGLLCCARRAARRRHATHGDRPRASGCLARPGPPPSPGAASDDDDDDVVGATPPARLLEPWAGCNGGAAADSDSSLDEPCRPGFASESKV", "assay": "PDSP competitive binding assay", "conditions": "10 µM test article; read-out: Ki: primary assay inhibition of radioligand binding, Beta1"}, "[23]": {"conditions": "dose response curve, given as LogKi with negative sign"}},
  "note": "Entries after “also recorded” stand apart in the source; their conditions may differ. Where two headings read alike, the source gives them in different places.",
  "data": [
    {"smiles": "OCCCN1CC[C@@H]2C[C@H]1c1cc(-c3ccc(C(F)(F)F)cc3)ccc12", "note": "[FEM-1689]", "values": [
      {"measurement": "inhibition at 10 µM", "setting": "[1]", "value": "< 50", "unit": "%"},
      {"measurement": "mechanical hypersensitivity after SNI (von Frey)", "setting": "[2]; single 10 mg/kg IV, 30 d after SNI, wild-type and TMEM97KO, 7 d, 10 mg/kg", "value": "little or no change for mechanical sensitivity in either group; also recorded: not sufficient to reduce mechanical hypersensitivity"},
      {"measurement": "mechanical hypersensitivity after SNI (von Frey)", "setting": "[2]; single 20 mg/kg IV, TMEM97KO mice, 20 mg/kg", "value": "failed to reduce mechanical hypersensitivity"},
      {"measurement": "duration of reversal of mechanical hypersensitivity", "setting": "[2]; single 20 mg/kg IV, wild-type mice", "value": "roughly 4 d"},
      {"measurement": "mechanical hypersensitivity after SNI (von Frey)", "setting": "[2]; single 20 mg/kg IV, wild-type mice, 20 mg/kg", "value": "effectively reversed mechanical hypersensitivity; also recorded: maximal antinociceptive effect"},
      {"measurement": "inhibition at 10 µM", "setting": "[3]", "value": "< 50", "unit": "%"},
      {"measurement": "brain to plasma ratio (AUClast)", "setting": "[4]; IP", "value": 20.5},
      {"measurement": "Cmax (IP)", "setting": "[4]; brain, IP", "value": 10916, "unit": "ng/mL"},
      {"measurement": "t1/2 (IP)", "setting": "[4]; brain, IP", "value": 11.4, "unit": "h"},
      {"measurement": "brain entry", "setting": "[4]; pharmacokinetic experiments, Fig. 2", "value": "readily enters the brain"},
      {"measurement": "Cmax (IP)", "setting": "[4]; plasma, IP", "value": 508, "unit": "ng/mL"},
      {"measurement": "t1/2 (IP)", "setting": "[4]; plasma, IP", "value": 21.7, "unit": "h"},
      {"measurement": "inhibition at 10 µM", "setting": "[5]", "value": "< 50", "unit": "%"},
      {"measurement": "inhibition at 10 µM", "setting": "[6]", "value": "< 50", "unit": "%"},
      {"measurement": "inhibition at 10 µM", "setting": "[7]", "value": "< 50", "unit": "%"},
      {"measurement": "LogKi, HERG", "setting": "[8]; [23]", "value": -6.08},
      {"measurement": "Ki", "setting": "[8]; dose response curve, read-out: Ki, HERG", "value": 0.839, "unit": "µM"},
      {"measurement": "Ki", "setting": "[8]; single determination, read-out: hERG Ki", "value": 0.839, "unit": "µM"},
      {"measurement": "inhibition at 10 µM", "setting": "[9]", "value": "< 50", "unit": "%"},
      {"measurement": "inhibition at 10 µM", "setting": "[10]", "value": "< 50", "unit": "%"},
      {"measurement": "inhibition at 10 µM", "setting": "[11]", "value": "< 50", "unit": "%"},
      {"measurement": "inhibition at 10 µM", "setting": "[12]", "value": "< 50", "unit": "%"},
      {"measurement": "inhibition at 10 µM", "setting": "[13]", "value": "< 50", "unit": "%"},
      {"measurement": "inhibition at 10 µM", "setting": "[14]", "value": "< 50", "unit": "%"},
      {"measurement": "inhibition at 10 µM", "setting": "[15]", "value": "< 50", "unit": "%"},
      {"measurement": "BiP levels", "setting": "[16]; TMEM97KO mouse DRG neurons", "value": "una ffecte d; also recorded: did not reduce levels of BiP"},
      {"measurement": "BiP levels", "setting": "[16]; wild-type mouse DRG neurons", "value": "reduced at a high concentration of 1000 nM"},
      {"measurement": "LogKi, BZP Rat Brain", "setting": "[17]; [23]", "value": -5.18},
      {"measurement": "Ki", "setting": "[17]; dose response curve, read-out: Ki, BZP Rat Brain", "value": 6.59, "unit": "µM"},
      {"measurement": "Ki", "setting": "[17]; single determination, read-out: BZP Rat Brain Ki", "value": 6.59, "unit": "µM"},
      {"measurement": "inhibition at 10 µM", "setting": "[18]", "value": "< 50", "unit": "%"},
      {"measurement": "inhibition at 10 µM", "setting": "[19]", "value": "< 50", "unit": "%"},
      {"measurement": "inhibition at 10 µM", "setting": "[20]", "value": "< 50", "unit": "%"},
      {"measurement": "LogKi, H4", "setting": "[21]; [23]", "value": -5.26},
      {"measurement": "Ki", "setting": "[21]; read-out: H4 Ki, single determination", "value": 5.51, "unit": "µM"},
      {"measurement": "Ki", "setting": "[21]; read-out: Ki, H4, dose response curve", "value": 5.51, "unit": "µM"},
      {"measurement": "inhibition at 10 µM", "setting": "[22]", "value": "< 50", "unit": "%"}
    ]}
  ]
}
